Measurements published in patent US8088741B2, “Compounds for enzyme inhibition” (Onyx Therapeutics, Inc., priority 2004, dated 2012).

Tests used:
[1] = molecular target: T1, Cell-based CT-L (proteasome chymotrypsin-like activity) (Homo sapiens, UniProt P28074); assay: Cell-based proteasome CT-L activity inhibition
T1 construct: endogenous in cells
T1 sequence (P28074 60-263): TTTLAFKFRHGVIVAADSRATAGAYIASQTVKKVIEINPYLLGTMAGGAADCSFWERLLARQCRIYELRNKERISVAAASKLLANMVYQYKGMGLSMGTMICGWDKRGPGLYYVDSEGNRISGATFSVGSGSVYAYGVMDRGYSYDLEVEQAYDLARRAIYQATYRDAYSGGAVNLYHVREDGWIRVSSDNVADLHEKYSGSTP

[2] = molecular target: 20S proteasome chymotrypsin-like activity (CT-L) (Homo sapiens, UniProt P28074); assay: 20S proteasome chymotrypsin-like (CT-L) activity inhibition; assay type: biochemical
Excerpt: As used herein, the term “inhibitor” is meant to describe a compound that blocks or reduces an activity of an enzyme (for example, inhibition of proteolytic cleavage of standard fluorogenic peptide substrates such as suc-LLVY-AMC, Box-LLR-AMC and Z-LLE-AMC, inhibition of various catalytic activities of the 20S proteasome). An inhibitor can act with competitive, uncompetitive, or noncompetitive inhibition. An inhibitor can bind reversibly or irreversibly, and therefore the term includes compounds that are suicide substrates of an enzyme. An inhibitor can modify one or more sites on or near the active site of the enzyme, or it can cause a conformational change elsewhere on the enzyme.
The chymotrypsin-like activity of 20S proteasome is characterized by cleavage of peptides in the immediate vicinity of large hydrophobic residues. In particular, the chymotrypsin-like activity of Ntn hydrolases can be determined by cleavage of a standard substrate. Examples of such substrates are known in the art. For example, a leucylvalinyltyrosine derivative can be used. Enzyme kinetic assays are disclosed in U.S. application Ser. No. 09/569748, Example 2 and Stein et al., Biochem. (1996), 35, 3899-3908.

IC50 [1] [nM] | IC50 [2] [nM] | SMILES
< 500 | < 500 | CC(C)C[C@H](NC(=O)C1CCN(S(=O)(=O)c2cccs2)CC1)C(=O)N[C@@H](Cc1ccccc1)C(=O)N[C@@H](CC(C)C)C(=O)[C@@]1(C)CO1 [Compound 7]
< 50 | < 50 | COc1ccc(NC(=O)N[C@@H](CC(C)C)C(=O)N[C@@H](Cc2ccccc2)C(=O)N[C@@H](CC(C)C)C(=O)[C@@]2(C)CO2)cc1 [Compound 17]
< 50 | < 50 | CC(C)C[C@H](NC(=O)CN1CCOCC1)C(=O)N[C@@H](Cc1ccccc1)C(=O)N[C@@H](CC(C)C)C(=O)[C@@]1(C)CO1 [Compound 18]

The remaining lines, values behind:

SMILES | IC50 [1] [nM] | IC50 [2] [nM]
CC(=O)N[C@@H](CCc1ccccc1)C(=O)N[C@@H](CC(C)C)C(=O)N[C@@H](CO)C(=O)N[C@@H](CC(C)C)C(=O)[C@@]1(C)CO1 [Compound 2] | < 500 | < 50
CC(C)C[C@H](NC(=O)c1ccccc1)C(=O)N[C@@H](Cc1ccccc1)C(=O)N[C@@H](CC(C)C)C(=O)[C@@]1(C)CO1 [Compound 3] | < 50 | < 50
Cc1ccc(CCC(=O)N[C@@H](CC(C)C)C(=O)N[C@@H](Cc2ccccc2)C(=O)N[C@@H](CC(C)C)C(=O)[C@@]2(C)CO2)cc1 [Compound 8] | < 50 | < 50
CC(C)C[C@H](NC(=O)[C@H](CCc1ccccc1)NC(=O)CN1CCOCC1)C(=O)N[C@@H](Cc1ccc(F)cc1)C(=O)N[C@@H](CC(C)C)C(=O)[C@@]1(C)CO1 [Compound 9] | < 50 | < 50
CC(C)C[C@H](NS(=O)(=O)c1ccsc1)C(=O)N[C@@H](Cc1ccccc1)C(=O)N[C@@H](CC(C)C)C(=O)[C@@]1(C)CO1 [Compound 14] | < 50 | < 50
COc1ccc(NC(=S)N[C@@H](CC(C)C)C(=O)N[C@@H](Cc2ccccc2)C(=O)N[C@@H](CC(C)C)C(=O)[C@@]2(C)CO2)cc1 [Compound 16] | < 50 | < 50
